From patent US20230167073A1 (Teijin Pharma Limited, priority 2020, published 2023)

What follows are molecules tested against T1, Human TRPC6 (Homo sapiens, UniProt Q9Y210) (assay: Evaluation of TRPC6 channel inhibitory activity (1), FLIPR Calcium 5 Assay Kit, OAG stimulation (Compound Nos. 1-1293)). Conditions: Human TRPC6 stably-expressing cells, OAG 30 μM, FLIPR Calcium 5 Assay Kit; read-out: Inhibitory activity (pIC50 class) (converted).
T1 construct: expressed in transfected cells
T1 sequence (Q9Y210 1-931): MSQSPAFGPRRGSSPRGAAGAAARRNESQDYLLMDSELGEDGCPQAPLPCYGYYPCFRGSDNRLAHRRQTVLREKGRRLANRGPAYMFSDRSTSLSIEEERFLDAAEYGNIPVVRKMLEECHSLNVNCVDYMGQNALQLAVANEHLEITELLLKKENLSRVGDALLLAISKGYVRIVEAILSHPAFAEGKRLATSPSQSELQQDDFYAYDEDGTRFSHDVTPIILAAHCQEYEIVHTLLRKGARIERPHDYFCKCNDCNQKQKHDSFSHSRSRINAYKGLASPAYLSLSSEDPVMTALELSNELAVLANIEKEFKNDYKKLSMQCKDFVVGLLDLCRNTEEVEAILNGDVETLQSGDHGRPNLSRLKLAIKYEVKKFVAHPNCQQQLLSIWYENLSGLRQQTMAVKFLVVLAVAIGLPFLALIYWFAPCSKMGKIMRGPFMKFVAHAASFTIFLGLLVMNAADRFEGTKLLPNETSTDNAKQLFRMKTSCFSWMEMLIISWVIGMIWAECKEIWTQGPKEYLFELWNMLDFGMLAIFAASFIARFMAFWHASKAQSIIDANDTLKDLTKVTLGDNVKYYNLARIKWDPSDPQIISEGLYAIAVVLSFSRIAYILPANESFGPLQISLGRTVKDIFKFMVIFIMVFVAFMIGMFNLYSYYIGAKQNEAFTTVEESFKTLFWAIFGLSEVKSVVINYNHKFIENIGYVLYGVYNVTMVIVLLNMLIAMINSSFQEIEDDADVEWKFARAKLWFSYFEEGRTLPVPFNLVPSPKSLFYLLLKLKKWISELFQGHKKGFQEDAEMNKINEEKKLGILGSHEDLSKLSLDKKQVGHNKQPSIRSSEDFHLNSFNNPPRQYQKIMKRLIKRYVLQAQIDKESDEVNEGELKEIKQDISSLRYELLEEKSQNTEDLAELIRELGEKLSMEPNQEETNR
Type: cell-based
Method in brief: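 Stable human TRPC6 line; fluorescent Ca2+ dye loading, then 20 min compound exposure before 30 μM OAG trigger. Peak-minus-baseline signal converted to % inhibition against untreated and unstimulated wells; potency given as pIC50 band.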

Row | SMILES | IC50
1 | Cn1nc(-c2ccccc2)cc1Oc1cc(C#N)ccc1-n1cc(C(O)CN)cn1 (stereo not drawn) [Compound 204, 4-[4-(2-amino-1-hydroxyethyl)pyrazol-1-yl]-3-(2-methyl-5-phenylpyrazol-3-yl)oxybenzonitrile] | < 10 nM
2 | Cc1cccc(-c2cc(Oc3cc(C#N)ccc3-n3cc([C@@H](O)CN)cn3)nc(C)n2)c1 [Compound 205, 4-[4-[(1R)-2-amino-1-hydroxyethyl]pyrazol-1-yl]-3-[2-methyl-6-(3-methylphenyl)pyrimidin-4-yl]oxybenzonitrile] | < 10 nM
3 | Cc1cccc(-c2cc(Oc3cc(C#N)ccc3-n3cc([C@H](O)CN)cn3)nc(C)n2)c1 [Compound 206, 4-[4-[(1S)-2-amino-1-hydroxyethyl]pyrazol-1-yl]-3-[2-methyl-6-(3-methylphenyl)pyrimidin-4-yl]oxybenzonitrile] | < 10 nM
4 | Cn1nc(-c2ccccc2)cc1Oc1cc(C#N)ccc1-c1ccc(CCNC2COC2)cn1 [Compound 207, 3-(2-methyl-5-phenylpyrazol-3-yl)oxy-4-[5-[2-(oxetan-3 ylamino)ethyl]pyridin-2-yl]benzonitrile] | 10 to 1000 nM
5 | Cc1nc(Oc2cc(C#N)ccc2-n2cc(N3CCNCC3=O)cn2)cc(C2CCCC2)n1 [Compound 208, 3-(6-Cyclopentyl-2-methylpyrimidin-4-yl)oxy-4-[4-(2-oxopiperazin-1-yl)pyrazol-1-yl]benzonitrile] | > 1000 nM
6 | Cc1nc(Oc2cc(C#N)ccc2-n2cc(N3CCCNCC3=O)cn2)cc(C2CCCC2)n1 [Compound 209, 3-(6-cyclopentyl-2-methylpyrimidin-4-yl)oxy-4-[4-(2-oxo-1,4-diazepan-1-yl)pyrazol-1-yl]benzonitrile] | > 1000 nM
7 | Cc1nc(Oc2cc(C#N)ccc2-n2cc(N3CCNCCC3=O)cn2)cc(C2CCCC2)n1 [Compound 210, 3-(6-cyclopentyl-2-methylpyrimidin-4-yl)oxy-4-[4-(7-oxo-1,4-diazepan-1-yl)pyrazol-1-yl]benzonitrile] | > 1000 nM
8 | CC(C)Cc1cc(Oc2cc(C#N)ccc2-c2ccc(CCN)cc2)n(C)n1 [Compound 211, 4-[4-(2-aminoethyl)phenyl]-3-[2-methyl-5-(2-methylpropyl)pyrazol-3-yl]oxybenzonitrile] | < 10 nM
9 | CC(C)Cc1cc(Oc2cc(C#N)ccc2-c2ccc(C(O)CN)cc2)n(C)n1 (stereo not drawn) [Compound 212, 4-[4-(2-amino-1-hydroxyethyl)phenyl]-3-[2-methyl-5 (2-methylpropyl)pyrazol-3-yl]oxybenzonitrile] | < 10 nM
10 | Cn1nc(C2CC2)cc1Oc1cc(C#N)ccc1-c1ccc(CCN)cc1 [Compound 213, 4-[4-(2-aminoethyl)phenyl]-3-(5-cyclopropyl-2-methylpyrazol-3-yl)oxybenzonitrile] | < 10 nM
11 | Cn1nc(C2CC2)cc1Oc1cc(C#N)ccc1-c1ccc(C(=O)CN)cc1 [Compound 214, 4-[4-(2-aminoacetyl)phenyl]-3-(5-cyclopropyl-2-methylpyrazol-3-yl)oxybenzonitrile] | 10 to 1000 nM
12 | Cn1nc(C2CC2)cc1Oc1cc(C#N)ccc1-c1ccc(C(O)CN)cc1 (stereo not drawn) [Compound 215, 4-[4-(2-amino-1-hydroxyethyl)phenyl]-3-(5-cyclopropyl-2-methylpyrazol-3-yl)oxybenzonitrile] | < 10 nM
13 | Cn1nc(C2CC2)cc1Oc1cc(C#N)ccc1-c1nc(C(O)CN)cs1 (stereo not drawn) [Compound 216, 4-[4-(2-amino-1-hydroxyethyl)-1,3-thiazol-2-yl]-3-(5-cyclopropyl-2-methylpyrazol-3-yl)oxybenzonitrile] | 10 to 1000 nM
14 | Cn1nc(-c2ccccc2)cc1Oc1cc(C#N)ccc1-n1cc(N2CCNCC2=O)cn1 [Compound 217, 3-(2-methyl-5-phenylpyrazol-3-yl)oxy-4-[4-(2-oxopiperazin-1-yl)pyrazol-1-yl]benzonitrile] | > 1000 nM
15 | Cn1nc(-c2ccccc2)cc1Oc1cc(C#N)ccc1-n1cc(N2CCCNCC2=O)cn1 [Compound 218, 3-(2-methyl-5-phenylpyrazol-3-yl)oxy-4-[4-(2-oxo-1,4-diazepan-1-yl)pyrazol-1-yl]benzonitrile] | > 1000 nM
